{"source": "patent US6455540B1", "about": "“Methods of use of quinolone compounds against anaerobic pathogenic bacteria” (priority 1999, dated 2002)", "test_in_all_cases": "Agar dilution MIC", "key": {"[1]": {"test_system": "Actinomyces odontolyticus", "type": "cell-based", "details": "Schaalia odontolytica, 10 isolates"}, "[2]": {"test_system": "Actinomyces israelii", "type": "cell-based", "details": "6 isolates"}, "[3]": {"test_system": "Anaerobiospirillum thomasii", "type": "cell-based", "details": "13 isolates"}, "[4]": {"test_system": "Anaerobiospirillum succiniciproducens", "type": "cell-based", "details": "3 isolates"}, "[5]": {"test_system": "Bacteroides gracilis", "type": "cell-based, Bacteroides gracilis (Campylobacter gracilis)", "details": "Campylobacter gracilis, 11 isolates"}, "[6]": {"test_system": "Bacteroides tectum", "type": "cell-based", "details": "Bacteroides pyogenes, 22 isolates"}, "[7]": {"test_system": "Bacteroides ureolyticus", "type": "cell-based", "details": "17 isolates"}, "[8]": {"test_system": "Clostridium clostridioforme", "type": "cell-based", "details": "11 isolates"}, "[9]": {"test_system": "Clostridium dfficile", "type": "cell-based, Clostridium difficile", "details": "14 isolates"}, "[10]": {"test_system": "Clostridium inocuum", "type": "cell-based, Clostridium innocuum", "details": "11 isolates"}, "[11]": {"test_system": "Clostridium ramosum", "type": "cell-based", "details": "10 isolates"}, "[12]": {"test_system": "Fusobacterium spp group 1", "type": "cell-based", "details": "Fusobacterium, 19 isolates"}, "[13]": {"test_system": "Fusobacterium spp. group 2", "type": "cell-based, Fusobacterium mortiferum, necrogenes, ulcerans", "details": "Fusobacterium, 12 isolates"}, "[14]": {"test_system": "Fusobacterium russii", "type": "cell-based", "details": "Fusobacterium russii; read-out: Minimal Inhibitory Concentration 90% (MIC90)"}, "[15]": {"test_system": "Fusobacterium varium", "type": "cell-based", "details": "Fusobacterium varium, 17 isolates"}, "[16]": {"test_system": "Peptostreptococcus asaccharolyticus", "type": "cell-based", "details": "Peptoniphilus asaccharolyticus, 11 isolates"}, "[17]": {"test_system": "Peptostreptococcus magnus", "type": "cell-based", "details": "13 isolates"}, "[18]": {"test_system": "Peptostreptococcus micros", "type": "cell-based", "details": "12 isolates"}, "[19]": {"test_system": "Peptostreptococcus prevotii", "type": "cell-based", "details": "Anaerococcus prevotii, read-out: Minimal Inhibitory Concentration 50% (MIC50); 9 isolates"}, "[20]": {"test_system": "Porphyromonas asaccharolyticus", "type": "cell-based, Porphyromonas asaccharolytica", "details": "Porphyromonas, 11 isolates"}, "[21]": {"test_system": "Porphyromonas canoris", "type": "cell-based", "details": "Porphyromonas canoris, 10 isolates"}, "[22]": {"test_system": "Porphyromonas gingivalis", "type": "cell-based", "details": "Porphyromonas gingivalis, 13 isolates"}, "[23]": {"test_system": "Porphyromonas macaccae", "type": "cell-based", "details": "Porphyromonas, read-out: Minimal Inhibitory Concentration 50% (MIC50); 13 isolates"}, "[24]": {"test_system": "Porphyromonas spp.", "type": "cell-based, Porphyromonas cangingivalis, cansulci, circumdentaria, levii", "details": "Porphyromonas, read-out: Minimal Inhibitory Concentration 50% (MIC50); 11 isolates"}, "[25]": {"test_system": "Prevotella bivia", "type": "cell-based", "details": "21 isolates"}, "[26]": {"test_system": "Prevotella buccae-oris group", "type": "cell-based", "details": "22 isolates"}, "[27]": {"test_system": "Prevotella heparinolytica", "type": "cell-based", "details": "16 isolates"}, "[28]": {"test_system": "Prevotella intermedia", "type": "cell-based", "details": "11 isolates"}, "[29]": {"test_system": "Prevotella melaninogenica", "type": "cell-based", "details": "Prevotella melaninogenica, 12 isolates"}, "[30]": {"test_system": "Prevotella denticola/loeschii group", "type": "cell-based", "details": "6 isolates"}, "[31]": {"test_system": "Veillonella spp.", "type": "cell-based", "details": "24 isolates"}, "[32]": {"details": "read-out: Minimal Inhibitory Concentration 90% (MIC90)"}, "[33]": {"details": "read-out: Minimal Inhibitory Concentration 50% (MIC50)"}, "[34]": {"details": "Clostridium, read-out: Minimal Inhibitory Concentration 90% (MIC90)"}}}
{"compound": "Cc1ncc([N+](=O)[O-])n1CCO", "note": "[Metronidazole]", "values": [{"measurement": "MIC90", "setting": "[1]; [32]", "result": 32, "unit": "µg/mL"}, {"measurement": "MIC50", "setting": "[1]; [33]", "result": 16, "unit": "µg/mL"}, {"measurement": "Minimal Inhibitory Concentration Range", "setting": "[2]", "result": "1 to 32", "unit": "µg/mL"}, {"measurement": "MIC50", "setting": "[2]; Actinomyces israelii, read-out: Minimal Inhibitory Concentration 50% (MIC50)", "result": 4, "unit": "µg/mL"}, {"measurement": "Minimal Inhibitory Concentration Range", "setting": "[3]", "result": "1 to 4", "unit": "µg/mL"}, {"measurement": "MIC50", "setting": "[3]; Anaerobiospirillum thomasii, read-out: Minimal Inhibitory Concentration 50% (MIC50)", "result": 2, "unit": "µg/mL"}, {"measurement": "MIC90", "setting": "[3]; Anaerobiospirillum thomasii, read-out: Minimal Inhibitory Concentration 90% (MIC90)", "result": 4, "unit": "µg/mL"}, {"measurement": "Minimal Inhibitory Concentration Range", "setting": "[4]", "result": "4 to 8", "unit": "µg/mL"}, {"measurement": "MIC50", "setting": "[4]; Anaerobiospirillum succiniciproducens, read-out: Minimal Inhibitory Concentration 50% (MIC50)", "result": 8, "unit": "µg/mL"}, {"measurement": "MIC90", "setting": "[5]; [32]", "result": "> 32", "unit": "µg/mL"}, {"measurement": "MIC50", "setting": "[5]; [33]", "result": 0.5, "unit": "µg/mL"}, {"measurement": "MIC90", "setting": "[6]; [32]", "result": 0.5, "unit": "µg/mL"}, {"measurement": "MIC50", "setting": "[6]; [33]", "result": 0.5, "unit": "µg/mL"}, {"measurement": "Minimal Inhibitory Concentration Range", "setting": "[7]", "result": "0.06 to 2", "unit": "µg/mL"}, {"measurement": "MIC90", "setting": "[7]; Campylobacter ureolyticus, read-out: Minimal Inhibitory Concentration 90% (MIC90)", "result": 1, "unit": "µg/mL"}, {"measurement": "MIC50", "setting": "[7]; Campylobacter ureolyticus, read-out: Minimal Inhibitory Concentration 50% (MIC50)", "result": 0.25, "unit": "µg/mL"}, {"measurement": "Minimal Inhibitory Concentration Range", "setting": "[8]", "result": "0.03 to 1", "unit": "µg/mL"}, {"measurement": "MIC90", "setting": "[8]; [34]", "result": 0.5, "unit": "µg/mL"}, {"measurement": "Minimal Inhibitory Concentration Range", "setting": "[9]", "result": "0.25 to 1", "unit": "µg/mL"}, {"measurement": "Minimal Inhibitory Concentration Range", "setting": "[10]", "result": "0.5 to 2", "unit": "µg/mL"}, {"measurement": "MIC90", "setting": "[10]; [34]", "result": 1, "unit": "µg/mL"}, {"measurement": "MIC50", "setting": "[10]; Clostridium, read-out: Minimal Inhibitory Concentration 50% (MIC50)", "result": 0.5, "unit": "µg/mL"}, {"measurement": "Minimal Inhibitory Concentration Range", "setting": "[11]", "result": 1, "unit": "µg/mL"}, {"measurement": "MIC50", "setting": "[11]; Thomasclavelia ramosa, read-out: Minimal Inhibitory Concentration 50% (MIC50)", "result": 1, "unit": "µg/mL"}, {"measurement": "MIC90", "setting": "[11]; Thomasclavelia ramosa, read-out: Minimal Inhibitory Concentration 90% (MIC90)", "result": 1, "unit": "µg/mL"}, {"measurement": "MIC50", "setting": "[12]; GROUP1, read-out: Minimal Inhibitory Concentration 50% (MIC50)", "result": 0.25, "unit": "µg/mL"}, {"measurement": "MIC90", "setting": "[12]; GROUP1, read-out: Minimal Inhibitory Concentration 90% (MIC90)", "result": 4, "unit": "µg/mL"}, {"measurement": "MIC50", "setting": "[13]; [33]", "result": 0.5, "unit": "µg/mL"}, {"measurement": "MIC90", "setting": "[13]; [32]", "result": 1, "unit": "µg/mL"}, {"measurement": "MIC90", "setting": "[14]", "result": 0.25, "unit": "µg/mL"}, {"measurement": "MIC50", "setting": "[15]; [33]", "result": 1, "unit": "µg/mL"}, {"measurement": "MIC90", "setting": "[15]; [32]", "result": 2, "unit": "µg/mL"}, {"measurement": "MIC50", "setting": "[16]; [33]", "result": 0.5, "unit": "µg/mL"}, {"measurement": "MIC90", "setting": "[16]; [32]", "result": 1, "unit": "µg/mL"}, {"measurement": "Minimal Inhibitory Concentration Range", "setting": "[17]", "result": "0.25 to 2", "unit": "µg/mL"}, {"measurement": "MIC50", "setting": "[17]; Finegoldia magna, read-out: Minimal Inhibitory Concentration 50% (MIC50)", "result": 0.5, "unit": "µg/mL"}, {"measurement": "MIC90", "setting": "[17]; Finegoldia magna, read-out: Minimal Inhibitory Concentration 90% (MIC90)", "result": 0.5, "unit": "µg/mL"}, {"measurement": "Minimal Inhibitory Concentration Range", "setting": "[18]", "result": "0.03 to 0.25", "unit": "µg/mL"}, {"measurement": "MIC50", "setting": "[18]; Parvimonas micra, read-out: Minimal Inhibitory Concentration 50% (MIC50)", "result": 0.25, "unit": "µg/mL"}, {"measurement": "MIC90", "setting": "[18]; Parvimonas micra, read-out: Minimal Inhibitory Concentration 90% (MIC90)", "result": 0.25, "unit": "µg/mL"}, {"measurement": "MIC50", "setting": "[19]", "result": 0.5, "unit": "µg/mL"}, {"measurement": "MIC50", "setting": "[20]; [33]", "result": "≤ 0.015", "unit": "µg/mL"}, {"measurement": "MIC90", "setting": "[20]; [32]", "result": "≤ 0.015", "unit": "µg/mL"}, {"measurement": "MIC50", "setting": "[21]; [33]", "result": 0.25, "unit": "µg/mL"}, {"measurement": "MIC90", "setting": "[21]; [32]", "result": 0.25, "unit": "µg/mL"}, {"measurement": "MIC50", "setting": "[22]; [33]", "result": "≤ 0.015", "unit": "µg/mL"}, {"measurement": "MIC90", "setting": "[22]; [32]", "result": 0.03, "unit": "µg/mL"}, {"measurement": "MIC50", "setting": "[23]", "result": 0.06, "unit": "µg/mL"}, {"measurement": "MIC50", "setting": "[24]", "result": 0.03, "unit": "µg/mL"}, {"measurement": "Minimal Inhibitory Concentration Range", "setting": "[25]", "result": "0.5 to 4", "unit": "µg/mL"}, {"measurement": "MIC90", "setting": "[25]; Prevotella bivia, read-out: Minimal Inhibitory Concentration 90% (MIC90)", "result": 4, "unit": "µg/mL"}, {"measurement": "MIC50", "setting": "[25]; Prevotella bivia, read-out: Minimal Inhibitory Concentration 50% (MIC50)", "result": 2, "unit": "µg/mL"}, {"measurement": "Minimal Inhibitory Concentration Range", "setting": "[26]", "result": "0.5 to 4", "unit": "µg/mL"}, {"measurement": "MIC90", "setting": "[26]; Prevotella, read-out: Minimal Inhibitory Concentration 90% (MIC90)", "result": 2, "unit": "µg/mL"}, {"measurement": "MIC50", "setting": "[26]; Prevotella, read-out: Minimal Inhibitory Concentration 50% (MIC50)", "result": 1, "unit": "µg/mL"}, {"measurement": "Minimal Inhibitory Concentration Range", "setting": "[27]", "result": "0.06 to 1", "unit": "µg/mL"}, {"measurement": "MIC90", "setting": "[27]; Prevotella heparinolytica, read-out: Minimal Inhibitory Concentration 90% (MIC90)", "result": 1, "unit": "µg/mL"}, {"measurement": "MIC50", "setting": "[27]; Prevotella heparinolytica, read-out: Minimal Inhibitory Concentration 50% (MIC50)", "result": 0.5, "unit": "µg/mL"}, {"measurement": "Minimal Inhibitory Concentration Range", "setting": "[28]", "result": "0.03 to 1", "unit": "µg/mL"}, {"measurement": "MIC90", "setting": "[28]; Prevotella intermedia, read-out: Minimal Inhibitory Concentration 90% (MIC90)", "result": 1, "unit": "µg/mL"}, {"measurement": "MIC50", "setting": "[28]; Prevotella intermedia, read-out: Minimal Inhibitory Concentration 50% (MIC50)", "result": 0.5, "unit": "µg/mL"}, {"measurement": "MIC90", "setting": "[29]; [32]", "result": 1, "unit": "µg/mL"}, {"measurement": "MIC50", "setting": "[29]; [33]", "result": 0.5, "unit": "µg/mL"}, {"measurement": "Minimal Inhibitory Concentration Range", "setting": "[30]", "result": "0.5 to 1", "unit": "µg/mL"}, {"measurement": "MIC50", "setting": "[30]; Prevotella denticola, read-out: Minimal Inhibitory Concentration 50% (MIC50)", "result": 1, "unit": "µg/mL"}, {"measurement": "Minimal Inhibitory Concentration Range", "setting": "[31]", "result": "0.25 to 2", "unit": "µg/mL"}, {"measurement": "MIC90", "setting": "[31]; Veillonella, read-out: Minimal Inhibitory Concentration 90% (MIC90)", "result": 2, "unit": "µg/mL"}, {"measurement": "MIC50", "setting": "[31]; Veillonella, read-out: Minimal Inhibitory Concentration 50% (MIC50)", "result": 1, "unit": "µg/mL"}]}
